Experimental data published in patent publication US8030335B2, “Use of liver X receptor agonists” (Laboratoires Fournier S.A., priority 2005, dated 2011).

Assays:
[1] = test system: isolated pancreatic islets; assay: Insulin content of pancreatic islets isolated from treated ZDF rats; assay type: in vivo, rat; settings: 10 mg/kg oral for 3 weeks, vehicle 4.78±0.86, fa+ 27.74±6.85, mean±SEM
Protocol: Male ZDF fa/fa and ZDF fa+ rats were obtained from Genetic Models (Indianapolis, Ind.), at the age of 6 weeks and used in the experiments at 12 weeks of age, after 3 weeks of oral treatment with vehicle or GW3965 (10 mg/kg). Compounds were given once daily (at 17 h) via oral gavage. At the time of their use, the ZDF fa/fa rats weighed 310-350 g, whereas the age-matched ZDF fa+ rats weighed 245-285 g. ZDF fa+ and ZDF fa/fa animals had free access to diabetogenic chow (Purina 5008). Animals were housed 5 per cage in a temperature and humidity-controlled room with a 12/12-h light-dark cycle. Blood samples were taken 16 h after compound administration via the tail vein and measured on a Konelab 300 (Labsystem) clinical chemistry analyzer. Rat pancreatic islets were prepared by collagenase digestion and density gradient purification. The enzyme collagenase type XI (Sigma Chemical, St. Louis, Mo.) was used for digestion of the pancreas. After an overnight fast, animals were deeply anesthetized and killed. Then, the pancreatic duct was cannulated, and 20 ml of the digestion solution at 37° C. […] Insulin content was measured in the same islets after an overnight alcohol-acid extraction (Ethanol 75%+HCl 0.15 N). Insulin concentrations in the different media were determined by rat insulin ELISA test (Insulin Rat Elite plus, MERCODIA).

[2] = test system: pancreatic sections; assay: Apoptosis by TUNEL staining on pancreatic sections; assay type: in vivo, rat; settings: 8 weeks-old ZDF rats, 10 mg/kg for 4 weeks, vehicle 4.55±1.29%, p<0.05
Protocol: Islet cell apoptosis was determined by transferase-mediated dUTP nick-end labeling (TUNEL) staining. Cell death was identified by 3′ in situ end labeling of fragmented DNA with biotinylated deoxyuridine-triphosphate. Each pancreatic piece was cut throughout its length into 5 μm thick sections, which were collected on gelatin-coated slides. Four sections at regular intervals were picked in both head and tail pieces. After digestion with Proteinase K (2 μg/ml; Sigma), sections were consecutively washed in TdT buffer (0.5 mol/l cacodylate [pH 6.8], 1 mmol/l cobalt chloride, 0.15 mol/l NaCl) and then incubated at 37° C. with TdT (25U; Boehringer-Mannheim, Mannheim, Germany) and biotinylated dUTP (1 nmol/μl). After washing in TB buffer (300 mmol/l NaCl, 30 mmol/l sodium citrate) to terminate the reaction, incorporation of biotinylated dUTP was detected by a modification of the avidin-biotin complex method. Horseradish peroxidise-conjugated streptavidin-biotin complex was applied (Vector Laboratories). The sections were then developed using DAB as chromogen and lightly counterstained with hematoxylin and mounted in dePex (BDH Laboratory, Poole, England).
Apoptosis have also been estimated using the TUNEL staining method on pancreatic sections of 5 animals of 8 weeks-old ZDF rats treated with GW3965 at 10 mg/kg for 4 weeks.

[3] = test system: Glut2 mRNA; assay: Real-time quantitative RT-PCR of Glut2 in isolated islets of treated ZDF rats; assay type: in vivo, rat; settings: normalized to 18S rRNA, vehicle ZDF 0.27, fa+ 0.40±0.22
Protocol: Pancreatic and duodenal homeobox gene 1, Pdx1 (Genbank: NM_022852) and facilitated glucose transporter, member 2, Glut2 (Genbank: NM_012879) gene expression were measured by real time quantitative RT-PCR. Total RNAs from fresh isolated rat pancreatic islets were prepared using Rneasy 96 Kit according to the manufacturer's protocol (Qiagen, France), treated with Dnase I to remove contaminating DNA (Stratagene, France), and quantified using the iScript cDNA Synthesis and iQ SYBR Green Supermix kits (Biorad, france). Real-time quantitative RT-PCR was performed using the iCycler Detection System instrument and software (Bio-Rad). As the predicted size of the amplified cDNAs and the Tm values for the primers were similar, uniform amplification conditions were applied (ie. annealing at 60° C.). Specificity of amplified products was monitored by performing melting curves at the end of each amplification. Expression levels were quantified (total RNA units) by generating a six-point serial standard curve. RNA samples were normalized for comparison by determining 18S rRNA levels. In this example, the mRNA expression of PDX1 and Glut2 was determined. As previously described, PDX1 and Glut2 are markers of the regeneration of beta cells. […] PDX1 and Glut2 mRNA expression was increased in islets isolated from GW3965-compared to vehicle-treated ZDF rats. […]

[4] = test system: NOD mice; assay: Insulitis development in NOD mice (pancreatic histology); assay type: in vivo, mouse
Source text: NOD (non-obese diabetes) mice is an experimental model of spontaneous resembling human Type I (insulin-dependent) diabetes, which results from the progressive islet invasion and beta cells destruction by autoreactive T cells. This spontaneous diabetes model offers a unique opportunity of studying the autoreactive T cells involved in the process of beta cell destruction and of settling preventive strategies before clinical onset of the disease. Non fasted mice were killed two days after the last administration of compounds. Pancreatic glands were excised and processed for conventional histological studies after fixation in Bouin's alcoholic solution. Five μm sections were stained with haematoxylin-eosin as described previously by Thivolet C. H. et al., 1991, Diabetologia, 34, 314-319. The evolution of insulitis was analysed in pancreas. […] State 4 was not observed in 8 weeks old mice, this state appeared at around 9-10 weeks. NOD mice of 4 weeks old have been treated for 4 weeks (5 days/7) with vehicle or GW3965 at 50 mg/kg. Pancreatic histological studies have been carried out as described above.

O=C(O)Cc1cccc(OCCCN(Cc2cccc(C(F)(F)F)c2Cl)CC(c2ccccc2)c2ccccc2)c1 [GW3965]
insulin content of islets [1]: 13.05±2.49 ng/islet | % of apoptosis by TUNEL staining [2]: 1.41±0.96% | Glut2 mRNA expression [3]: 0.55±0.23 | normal islets in the pancreas ([4]; NOD mice of 4 weeks old, 50 mg/kg for 4 weeks (5 days/7), control 32%): 94% | insulitis (lymphocytes infiltration) ([4]; NOD mice, 50 mg/kg for 4 weeks, pancreatic sections): appears protected against the lymphocytes infiltration
